Results taken from patent EP0198522A1, “Heterocyclic herbicides” (SHELL INTERNATIONALE RESEARCH MAATSCHAPPIJ B.V., priority 1985, dated 1986).

Legend:
Type in all cases: in vivo
[1] = tested on: barnyard grass, Echinochloa crusgalli; assay: Herbicidal activity, post-emergence soil drench test; conditions: 10 kg/ha soil drench; assessed visually thirteen days after drenching; 0-9 scale, 0 = growth as untreated control, 9 = death
Description: (§1) To evaluate their herbicidal activity, compounds according to the invention were tested using as representative range of plants: maize, Zea mays (Mz); rice, Oryza sativa (R); barnyard grass, Echinochloa crusgalli (BG); oat, Avena sativa (0); linseed, Linum usitatissisum (L); mustard, Sinapsis alba (M); sugar beet, Beta vulgaris (SB) and soya bean, Glycine max (S).
(§2) The tests fall into two categories, pre-emergence and post-emergence. […] The post-emergence tests involved two types of test, viz., soil drench and foliar spray tests. In the soil drench tests the soil in which the seedling plants of the above species were growing was drenched with a liquid formulation containing a compound of the invention, and in the foliar spray tests the seedling plants were sprayed with such a formulation.
(§3) The soil used in the tests was a prepared horticultural loam.
(§4) These acetone solutions were diluted with water and the resulting formulations applied at dosage levels corresponding to 5 kg or 1 kg of active material per hectare in a volume equivalent to 600 litres per hectare in the soil spray and foliar spray test, and at a dosage of level equivalent to 10 kilograms of active material per hectare in a volume equivalent to approximately 3,000 litres per hectare in the soil drench tests.
(§5) In the pre-emexgence tests untreated sown soil and in the post-emergence tests untreated soil bearing seedling plants were used as controls.
(§6) The herbicidal effects of the test compounds were assessed visually twelve days after spraying the foliage and the soil, and thirteen days after drenching the soil and were recorded on a 0-9 scale. A rating 0 indicates growth as untreated control, a rating 9 indicates death. An increase of 1 unit on the linear scale approximates to a 10% increase in the level of effect.

[2] = tested on: linseed, Linum usitatissisum; assay: as above; conditions: 10 kg/ha soil drench; assessed visually thirteen days after drenching; 0-9 scale, 0 = growth as untreated control, 9 = death
Description: as §1, §2, §3, §4, §5, §6

[3] = tested on: maize, Zea mays; assay: as above; conditions: 10 kg/ha soil drench; assessed visually thirteen days after drenching; 0-9 scale, 0 = growth as untreated control, 9 = death
Description: as §1, §2, §3, §4, §5, §6

[4] = tested on: mustard, Sinapsis alba; assay: as above; conditions: 10 kg/ha soil drench; assessed visually thirteen days after drenching; 0-9 scale, 0 = growth as untreated control, 9 = death
Description: as §1, §2, §3, §4, §5, §6

[5] = tested on: oat, Avena sativa; assay: as above; conditions: 10 kg/ha soil drench; assessed visually thirteen days after drenching; 0-9 scale, 0 = growth as untreated control, 9 = death
Description: as §1, §2, §3, §4, §5, §6

[6] = tested on: rice, Oryza sativa; assay: as above; conditions: 10 kg/ha soil drench; assessed visually thirteen days after drenching; 0-9 scale, 0 = growth as untreated control, 9 = death
Description: as §1, §2, §3, §4, §5, §6

[7] = tested on: soya bean, Glycine max; assay: as above; conditions: 10 kg/ha soil drench; assessed visually thirteen days after drenching; 0-9 scale, 0 = growth as untreated control, 9 = death
Description: as §1, §2, §3, §4, §5, §6

[8] = tested on: sugar beet, Beta vulgaris; assay: as above; conditions: 10 kg/ha soil drench; assessed visually thirteen days after drenching; 0-9 scale, 0 = growth as untreated control, 9 = death
Description: as §1, §2, §3, §4, §5, §6

[9] = tested on: barnyard grass, Echinochloa crusgalli; assay: Herbicidal activity, post-emergence foliar spray test; conditions: assessed visually twelve days after spraying, 0-9 scale, 0 = growth as untreated control, 9 = death
Description: as §1, §2, §3, §4, §5, §6

[10] = tested on: linseed, Linum usitatissisum; assay: as above; conditions: assessed visually twelve days after spraying, 0-9 scale, 0 = growth as untreated control, 9 = death
Description: as §1, §2, §3, §4, §5, §6

[11] = tested on: maize, Zea mays; assay: as above; conditions: assessed visually twelve days after spraying, 0-9 scale, 0 = growth as untreated control, 9 = death
Description: as §1, §2, §3, §4, §5, §6

[12] = tested on: mustard, Sinapsis alba; assay: as above; conditions: assessed visually twelve days after spraying, 0-9 scale, 0 = growth as untreated control, 9 = death
Description: as §1, §2, §3, §4, §5, §6

[13] = tested on: oat, Avena sativa; assay: as above; conditions: assessed visually twelve days after spraying, 0-9 scale, 0 = growth as untreated control, 9 = death
Description: as §1, §2, §3, §4, §5, §6

[14] = tested on: rice, Oryza sativa; assay: as above; conditions: assessed visually twelve days after spraying, 0-9 scale, 0 = growth as untreated control, 9 = death
Description: as §1, §2, §3, §4, §5, §6

[15] = tested on: soya bean, Glycine max; assay: as above; conditions: assessed visually twelve days after spraying, 0-9 scale, 0 = growth as untreated control, 9 = death
Description: as §1, §2, §3, §4, §5, §6

[16] = tested on: sugar beet, Beta vulgaris; assay: as above; conditions: assessed visually twelve days after spraying, 0-9 scale, 0 = growth as untreated control, 9 = death
Description: as §1, §2, §3, §4, §5, §6

[17] = tested on: barnyard grass, Echinochloa crusgalli; assay: Herbicidal activity, pre-emergence test (soil spray); conditions: assessed visually twelve days after spraying, 0-9 scale, 0 = growth as untreated control, 9 = death
Description: as §1, §2, §3, §4, §5, §6

[18] = tested on: linseed, Linum usitatissisum; assay: as above; conditions: assessed visually twelve days after spraying, 0-9 scale, 0 = growth as untreated control, 9 = death
Description: as §1, §2, §3, §4, §5, §6

[19] = tested on: maize, Zea mays; assay: as above; conditions: assessed visually twelve days after spraying, 0-9 scale, 0 = growth as untreated control, 9 = death
Description: as §1, §2, §3, §4, §5, §6

[20] = tested on: mustard, Sinapsis alba; assay: as above; conditions: assessed visually twelve days after spraying, 0-9 scale, 0 = growth as untreated control, 9 = death
Description: as §1, §2, §3, §4, §5, §6

[21] = tested on: oat, Avena sativa; assay: as above; conditions: assessed visually twelve days after spraying, 0-9 scale, 0 = growth as untreated control, 9 = death
Description: as §1, §2, §3, §4, §5, §6

[22] = tested on: rice, Oryza sativa; assay: as above; conditions: assessed visually twelve days after spraying, 0-9 scale, 0 = growth as untreated control, 9 = death
Description: as §1, §2, §3, §4, §5, §6

[23] = tested on: soya bean, Glycine max; assay: as above; conditions: assessed visually twelve days after spraying, 0-9 scale, 0 = growth as untreated control, 9 = death
Description: as §1, §2, §3, §4, §5, §6

[24] = tested on: sugar beet, Beta vulgaris; assay: as above; conditions: assessed visually twelve days after spraying, 0-9 scale, 0 = growth as untreated control, 9 = death
Description: as §1, §2, §3, §4, §5, §6

COC(=O)c1cc2cc3c(cc2nc1C1=NC(C)(C(C)C)C(=O)N1C(C)=O)OCO3 (centres unmarked) [Example 3, Methyl-2-(1-acetyl-4-isopropyl-4-methyl-5-oxo-2-imidazolin-2-yl)-[1,3]-dioxolo[4,5-g] quinoline-3-carboxylate]
4: Foliar spray Mz (herbicidal effect rating) ([11]; Dosage 1 kg/ha) | Pre-emergence BG (herbicidal effect rating) ([17]; Dosage 1 kg/ha) | Pre-emergence Mz (herbicidal effect rating) ([19]; Dosage 1 kg/ha) | Pre-emergence M (herbicidal effect rating) ([20]; Dosage 5 kg/ha) | Pre-emergence O (herbicidal effect rating) ([21]; Dosage 1 kg/ha) | Pre-emergence SB (herbicidal effect rating) ([24]; Dosage 1 kg/ha)
2: Foliar spray R (herbicidal effect rating) ([14]; Dosage 1 kg/ha) | Pre-emergence M (herbicidal effect rating) ([20]; Dosage 1 kg/ha) | Pre-emergence R (herbicidal effect rating) ([22]; Dosage 1 kg/ha)
1: Foliar spray S (herbicidal effect rating) ([15]; Dosage 1 kg/ha)
0: Soil drench 10/kg/ha S (herbicidal effect rating) [7] | Pre-emergence S (herbicidal effect rating) ([23]; Dosage 1 kg/ha) | Pre-emergence S (herbicidal effect rating) ([23]; Dosage 5 kg/ha)
3: Foliar spray M (herbicidal effect rating) ([12]; Dosage 1 kg/ha) | Foliar spray O (herbicidal effect rating) ([13]; Dosage 1 kg/ha) | Foliar spray S (herbicidal effect rating) ([15]; Dosage 5 kg/ha)
5: Soil drench 10/kg/ha Mz (herbicidal effect rating) [3] | Soil drench 10/kg/ha R (herbicidal effect rating) [6] | Foliar spray BG (herbicidal effect rating) ([9]; Dosage 1 kg/ha) | Foliar spray L (herbicidal effect rating) ([10]; Dosage 1 kg/ha) | Foliar spray O (herbicidal effect rating) ([13]; Dosage 5 kg/ha) | Foliar spray R (herbicidal effect rating) ([14]; Dosage 5 kg/ha) | Foliar spray SB (herbicidal effect rating) ([16]; Dosage 1 kg/ha) | Pre-emergence L (herbicidal effect rating) ([18]; Dosage 1 kg/ha) | Pre-emergence R (herbicidal effect rating) ([22]; Dosage 5 kg/ha)
6: Soil drench 10/kg/ha L (herbicidal effect rating) [2] | Soil drench 10/kg/ha O (herbicidal effect rating) [5] | Foliar spray L (herbicidal effect rating) ([10]; Dosage 5 kg/ha) | Foliar spray Mz (herbicidal effect rating) ([11]; Dosage 5 kg/ha) | Foliar spray M (herbicidal effect rating) ([12]; Dosage 5 kg/ha) | Pre-emergence O (herbicidal effect rating) ([21]; Dosage 5 kg/ha)
8: Soil drench 10/kg/ha SB (herbicidal effect rating) [8] | Pre-emergence L (herbicidal effect rating) ([18]; Dosage 5 kg/ha) | Pre-emergence Mz (herbicidal effect rating) ([19]; Dosage 5 kg/ha) | Pre-emergence SB (herbicidal effect rating) ([24]; Dosage 5 kg/ha)
7: Soil drench 10/kg/ha BG (herbicidal effect rating) [1] | Soil drench 10/kg/ha M (herbicidal effect rating) [4] | Foliar spray BG (herbicidal effect rating) ([9]; Dosage 5 kg/ha) | Foliar spray SB (herbicidal effect rating) ([16]; Dosage 5 kg/ha) | Pre-emergence BG (herbicidal effect rating) ([17]; Dosage 5 kg/ha)

CC(C)C1(C)NC(c2nc3cc4c(cc3cc2C(=O)O)OCO4)=NC1=O (centres unmarked) [Example 2, 2-(5-methyl-5-isopropyl-4-oxo-2-imidazolin-2-yl)-[1,3]-dioxolo[4,5-g] quinoline-3-carboxylic acid]
8: Soil drench 10/kg/ha SB (herbicidal effect rating) [8] | Pre-emergence BG (herbicidal effect rating) ([17]; Dosage 1 kg/ha) | Pre-emergence BG (herbicidal effect rating) ([17]; Dosage 5 kg/ha) | Pre-emergence L (herbicidal effect rating) ([18]; Dosage 1 kg/ha) | Pre-emergence Mz (herbicidal effect rating) ([19]; Dosage 1 kg/ha) | Pre-emergence Mz (herbicidal effect rating) ([19]; Dosage 5 kg/ha) | Pre-emergence S (herbicidal effect rating) ([23]; Dosage 1 kg/ha) | Pre-emergence S (herbicidal effect rating) ([23]; Dosage 5 kg/ha) | Pre-emergence SB (herbicidal effect rating) ([24]; Dosage 1 kg/ha) | Pre-emergence SB (herbicidal effect rating) ([24]; Dosage 5 kg/ha)
4: Foliar spray S (herbicidal effect rating) ([15]; Dosage 5 kg/ha)
7: Soil drench 10/kg/ha L (herbicidal effect rating) [2] | Soil drench 10/kg/ha Mz (herbicidal effect rating) [3] | Soil drench 10/kg/ha O (herbicidal effect rating) [5] | Soil drench 10/kg/ha R (herbicidal effect rating) [6] | Foliar spray BG (herbicidal effect rating) ([9]; Dosage 1 kg/ha) | Foliar spray BG (herbicidal effect rating) ([9]; Dosage 5 kg/ha) | Foliar spray Mz (herbicidal effect rating) ([11]; Dosage 5 kg/ha) | Foliar spray M (herbicidal effect rating) ([12]; Dosage 1 kg/ha) | Foliar spray M (herbicidal effect rating) ([12]; Dosage 5 kg/ha) | Foliar spray O (herbicidal effect rating) ([13]; Dosage 5 kg/ha) | Foliar spray SB (herbicidal effect rating) ([16]; Dosage 1 kg/ha) | Foliar spray SB (herbicidal effect rating) ([16]; Dosage 5 kg/ha) | Pre-emergence M (herbicidal effect rating) ([20]; Dosage 1 kg/ha) | Pre-emergence M (herbicidal effect rating) ([20]; Dosage 5 kg/ha) | Pre-emergence O (herbicidal effect rating) ([21]; Dosage 1 kg/ha) | Pre-emergence O (herbicidal effect rating) ([21]; Dosage 5 kg/ha)
6: Soil drench 10/kg/ha S (herbicidal effect rating) [7] | Foliar spray L (herbicidal effect rating) ([10]; Dosage 1 kg/ha) | Foliar spray L (herbicidal effect rating) ([10]; Dosage 5 kg/ha) | Foliar spray Mz (herbicidal effect rating) ([11]; Dosage 1 kg/ha) | Foliar spray O (herbicidal effect rating) ([13]; Dosage 1 kg/ha) | Foliar spray R (herbicidal effect rating) ([14]; Dosage 1 kg/ha) | Foliar spray R (herbicidal effect rating) ([14]; Dosage 5 kg/ha)
2: Foliar spray S (herbicidal effect rating) ([15]; Dosage 1 kg/ha)
9: Soil drench 10/kg/ha BG (herbicidal effect rating) [1] | Soil drench 10/kg/ha M (herbicidal effect rating) [4] | Pre-emergence L (herbicidal effect rating) ([18]; Dosage 5 kg/ha) | Pre-emergence R (herbicidal effect rating) ([22]; Dosage 1 kg/ha) | Pre-emergence R (herbicidal effect rating) ([22]; Dosage 5 kg/ha)
